These are literature values, as cited in patent US7232435B2, “Delivery of a sympatholytic cardiovascular agent to the central nervous system to counter heart failure and pathologies associated with heart failure” (Medtronic, Inc., priority 2004, dated 2007).

Structures can show the parent of a compound that is named as a salt.

For data set [1] the following is noted: bolus intravenous injection.
For data set [2] the following is noted: oral or transdermal.
For data set [3] the following is noted: intrathecal delivery.

For `Clc1cccc(Cl)c1N=C1NCCN1` [clonidine HCl], in data set [1], the “autonomic effects (sympathetic outflow, vagal tone, baroreceptor reflex sensitivity)” value is “decreased sympathetic outflow, increased vagal tone and sensitivity of the baroreceptor reflex”; the “hemodynamic effects (heart rate, preload, afterload, pulmonary artery and right atrial pressure)” value is “Reductions were observed in heart rate, left ventricular filling pressure (preload), mean systemic arterial pressure (afterload), mean pulmonary artery pressure and right atrial pressure”; the “time of peak effects” value is 5 to 20 min.

Take `Clc1cccc(Cl)c1N=C1NCCN1` [clonidine, 2-[(2,6-dichlorophenyl)amino]-2-imidazoline]: the major side effects entry in data set [2] is “sedation and dry mouth”. Moreover, the undesirable side effects result in data set [3] is “Abnormally low blood pressure (hypotension) and bradycardia”.
